Experiments:
Assay type in all cases: cell-based
Settings in all cases: substance alone
Streptococcus agalactiae = assay: Minimum Bactericidal Concentration (MBC) in liquid medium against Streptococcus agalactiae
Description: Three Streptococcus agalactiae strains isolated from vaginal-rectal buffers during the prenatal check-ups were used for the assay. The strains were named “strain 2”, “strain 10” and “strain 11”. Isolation was carried out on a blood agar medium and identification was obtained through biochemical tests of the API 20 Strep (Bio-Mérieux) system and through the identification of the Lancefield group.
The experiments were also carried out on a Streptococcus agalactiae ATCC 12386 strain.
“Brain Heart Infusion broth” (BHIb, Becton Dickinson) medium was used for the Streptococcus agalactiae culture, “Mueller-Hinton broth” (M-Hb) medium after adding 2% “laked” horse blood and the “Mueller-Hinton agar” (M-Ha) medium with addition of defibrinated horse blood at 5% (Oxoid) were used for the antimicrobial activity assays.
The Streptococcus agalactiae strains were cultured in BHIb broth for 24 hours at 37° C. Immediately before the assay, the bacterial suspensions were diluted up to obtaining turbidity equivalent to 0.5 McFarland standard. 50 μl of a further 1:100 dilution in broth+blood at 2% were distributed in the wells of the microtitre plates. The presumed titre of the inoculum carried out through this procedure is of about 5×10^4 ufc (units forming colony)/well.
The bacterial cultures were also diluted serially according to a value 10 (up to a dilution value equivalent to 10^−7) and an aliquot of 0.1 ml of each dilution was double streaked on M-Ha +blood 5% for determining the actual titre to be used, subsequently, to determine the MBC (Minimum Bactericidal Concentration).
The assay was carried out in 96-well microtitre plates. 50 μl of M-Hb at normal concentration were deposited in the first well of each of the 5 rows. Starting from the first well of each row, […] volumes were transferred from each well to the subsequent one 10 times, thus obtaining a series of dilutions after doubling. The 12th well of each row was kept substance-free as a positive control of the bacterial growth.
Subsequently, 50 μl of bacterial inoculum of M-Hb+double concentration blood (4%) were deposited in all wells of the plate, except for the 11th of each row. Only M-Hb+double concentration blood but bacteria-free, were deposited in the 11th well, with the aim of providing negative control for each row. The described scheme was used for the assay of each of the three Streptococcus agalactiae strains.
(§1) Immediately after determining the value of the MIC for each substance, a volume equivalent to 50 μl was taken from each well and streaked on the surface of plates containing the solid medium. The plates were subsequently incubated at the conditions indicated for each microbial strain. After incubation at 37° C. for 24 hours, the number of colonies grown on the medium surface was counted thus determining the number of bacteria that survived after 24 hours of contact with the substance at the concentration present in the well. The MBC value defined as the lowest concentration of each substance capable of reducing the bacterial load by 99.9% in the previously defined assay conditions was determined through comparison between the number of bacteria that survived in each well and that of the bacterial inoculum deposited initially.

[1] = tested on: Lactobacillus crispatus NCIMB 4505; assay: MBC against Lactobacillus crispatus
Description: as §1, with “The vaginal lactobacillus strains used are the NCIMB 4505 strain of Lactobacillus crispatus, the NCIMB 13279 strain of Lactobacillus jensenii and NCIMB 702820 strain of Lactobacillus gasseri. [table] The other assayed microbial strains were cultured in the liquid media and in the incubation conditions specified in table A, following the operating procedure described above. Immediately” for “Immediately”

[2] = tested on: Candida albicans ATCC 10231; assay: MIC against Candida albicans
Description: (§2) The Gardnerella vaginalis ATCC 14018 strain, the Neisseria gonorrhoeae ATCC 43069 strain and the Candida albicans ATCC 10231 strain were also used for the experiment.
(§3) The other assayed microbial strains were cultured in the liquid media and in the incubation conditions specified in table A, following the operating procedure described above.
(§4) The assay was carried out in 96-well microtitre plates. 50 μl of substance solution at the “mother” concentration alongside 50 μl of liquid medium at double concentration were deposited in the first well of each of the 8 rows while 50 μl of liquid medium at normal concentration were deposited in the remaining 11 wells. Starting from the first well of each row, 50 μl volumes were transferred from each well to the subsequent one 10 times, thus obtaining a series of 11 dilutions after doubling. The 12th well of each row was kept substance-free as a function of positive control of the bacterial growth.
(§5) Subsequently, 50 μl of diluted bacterial inoculum as specified previously were deposited in all wells of the plate, except for the 11th of each row. Only the liquid medium at single concentration but bacteria-free, was deposited in the 11th well, with the aim of providing negative control for each row. The described scheme was used for the assay with each of the assayed microbial strains.
After incubation at the conditions indicated regarding each micro-organism, the microtitre plates were examined to verify, in each well, the presence or absence of bacterial growth. The minimum inhibitory concentration is defined as the lowest concentration of the substance still capable of inhibiting bacterial growth i.e. preventing the liquid from becoming turbid within the well.

[3] = tested on: Neisseria gonorrhoeae ATCC 43069; assay: MBC against Neisseria gonorrhoeae
Description: as §1, with “The Gardnerella vaginalis ATCC 14018 strain, the Neisseria gonorrhoeae ATCC 43069 strain and the Candida albicans ATCC 10231 strain were also used for the experiment. [table] The other assayed microbial strains were cultured in the liquid media and in the incubation conditions specified in table A, following the operating procedure described above. Immediately” for “Immediately”

[4] = tested on: Gardnerella vaginalis ATCC 14018; assay: MBC against Gardnerella vaginalis
Description: as §1, with “The Gardnerella vaginalis ATCC 14018 strain, the Neisseria gonorrhoeae ATCC 43069 strain and the Candida albicans ATCC 10231 strain were also used for the experiment. [table] The other assayed microbial strains were cultured in the liquid media and in the incubation conditions specified in table A, following the operating procedure described above. Immediately” for “Immediately”

[5] = tested on: Neisseria gonorrhoeae ATCC 43069; assay: MIC against Neisseria gonorrhoeae
Description: as §2, §3, §4
as §5, with “strains. […]” for “strains.”

[6] = tested on: Candida albicans ATCC 10231; assay: MBC against Candida albicans
Description: as §1, with “The Gardnerella vaginalis ATCC 14018 strain, the Neisseria gonorrhoeae ATCC 43069 strain and the Candida albicans ATCC 10231 strain were also used for the experiment. [table] The other assayed microbial strains were cultured in the liquid media and in the incubation conditions specified in table A, following the operating procedure described above. Immediately” for “Immediately”

Row | Substance | MBC (Streptococcus agalactiae; ATCC 12386 in M-Hb blood 2%) | MBC (Streptococcus agalactiae; Strain 2 in M-Hb blood 2%) | MBC (Streptococcus agalactiae; Strain 10 in M-Hb blood 2%) | MBC (Streptococcus agalactiae; Strain 11 in M-Hb blood 2%) | MBC [1] | MIC [2] | MBC [3] | MBC [4] | MIC [5] | MBC [6]
1 | caprylyl/capryl glucoside/C8-C10 alkyl polyglucoside [Substance A1] | 0.097 | 0.097 | 0.194 | 0.097 | 0.193% | – | – | – | – | –
2 | lauryl glucoside/C12-C16 alkyl polyglucoside [Substance A2] | 0.0097 | 0.0097 | 0.019 | 0.0097 | 0.077% | 0.077% | ≦0.0012% | 0.0048% | ≦0.0012% | 0.154%

Source: patent US20140051650A1, “VAGINAL COMPOSITIONS BASED ON ALKYL POLYGLUCOSIDES” (EFFIK S.A., priority 2011, published 2014)
